Measured values as given in the NIST ThermoML archive (doi:10.1016/j.jct.2012.08.021).

Experiment: xn = mol fraction of the nth substance listed
Settings: 101 kPa, Liquid, Vibrating tube method

NCCO [2-aminoethan-1-ol] + C[S+](C)[O-]
Settings	mass density [kg/m3]
293.15 K, x1 = 0.1002	1092.35
293.15 K, x1 = 0.2	1084.23
293.15 K, x1 = 0.2999	1076.52
293.15 K, x1 = 0.4002	1068.58
293.15 K, x1 = 0.5002	1060.65
293.15 K, x1 = 0.5999	1052.61
293.15 K, x1 = 0.7002	1044.32
293.15 K, x1 = 0.8001	1035.24
293.15 K, x1 = 0.8998	1026.1
293.16 K, x1 = 1	1016.34
303.14 K, x1 = 0.2999	1066.93
303.14 K, x1 = 1	1008.4
303.15 K, x1 = 0.1002	1082.48
303.15 K, x1 = 0.4002	1059.15
303.15 K, x1 = 0.5002	1051.41
303.15 K, x1 = 0.5999	1043.58
303.15 K, x1 = 0.7002	1035.51
303.15 K, x1 = 0.8001	1026.69
303.15 K, x1 = 0.8998	1017.83
303.16 K, x1 = 0.2	1074.46
313.14 K, x1 = 0.1002	1072.61
313.14 K, x1 = 0.2999	1057.33
313.14 K, x1 = 1	1000.41
313.15 K, x1 = 0.2	1064.73
313.15 K, x1 = 0.4002	1049.71
313.15 K, x1 = 0.5002	1042.15
313.15 K, x1 = 0.5999	1034.52
313.15 K, x1 = 0.7002	1026.7
313.15 K, x1 = 0.8001	1018.12
313.15 K, x1 = 0.8998	1009.56
323.14 K, x1 = 0.1002	1062.74
323.15 K, x1 = 0.2999	1047.72
323.15 K, x1 = 0.4002	1040.26
323.15 K, x1 = 0.5002	1032.85
323.15 K, x1 = 0.5999	1025.42
323.15 K, x1 = 0.7002	1017.83
323.15 K, x1 = 0.8001	1009.5
323.15 K, x1 = 0.8998	1001.23
323.15 K, x1 = 1	992.384
323.16 K, x1 = 0.2	1054.96
333.14 K, x1 = 0.2999	1038.11
333.14 K, x1 = 1	984.302
333.15 K, x1 = 0.1002	1052.86
333.15 K, x1 = 0.4002	1030.78
333.15 K, x1 = 0.5002	1023.56
333.15 K, x1 = 0.7002	1008.93
333.15 K, x1 = 0.8001	1000.84
333.15 K, x1 = 0.8998	992.847
333.16 K, x1 = 0.2	1045.22
333.16 K, x1 = 0.5999	1016.3
343.14 K, x1 = 1	976.141
343.15 K, x1 = 0.1002	1042.97
343.15 K, x1 = 0.2	1035.46
343.15 K, x1 = 0.2999	1028.47
343.15 K, x1 = 0.4002	1021.28
343.15 K, x1 = 0.5002	1014.22
343.15 K, x1 = 0.5999	1007.15
343.15 K, x1 = 0.7002	999.999
343.15 K, x1 = 0.8001	992.114
343.15 K, x1 = 0.8998	984.393
353.14 K, x1 = 0.1002	1033.05
353.14 K, x1 = 0.2999	1018.81
353.14 K, x1 = 0.4002	1011.75
353.14 K, x1 = 0.5002	1004.84
353.14 K, x1 = 0.7002	990.992
353.14 K, x1 = 0.8001	983.32
353.14 K, x1 = 0.8998	975.863
353.14 K, x1 = 1	967.893
353.15 K, x1 = 0.2	1025.66
353.15 K, x1 = 0.5999	997.944
363.14 K, x1 = 0.1002	1023.1
363.14 K, x1 = 0.2	1015.84
363.14 K, x1 = 0.5002	995.408
363.14 K, x1 = 0.5999	988.672
363.14 K, x1 = 0.7002	981.91
363.14 K, x1 = 0.8001	974.446
363.14 K, x1 = 0.8998	967.234
363.15 K, x1 = 0.2999	1009.1
363.15 K, x1 = 0.4002	1002.17
363.15 K, x1 = 1	959.536
